Laboratory results published in ChEMBL document CHEMBL1146858 (Bioorg Med Chem Lett, 2006).

Legend:
[1] = target: Coagulation factor X (Homo sapiens, UniProt P00742); experiment: Binding affinity to human F10a
[2] = target: Coagulation factor VII/tissue factor (Homo sapiens) (UniProt P08709+P13726); experiment: Anticoagulant activity in plasma by PT assay; format: functional, cell-free
[3] = target: Prothrombin (Homo sapiens, UniProt P00734); experiment: Binding affinity to human F2a
[4] = Volume of distribution in dog; format: ADME, organism-based, Canis lupus familiaris; details: in vivo, read-out: Vdss
[5] = Oral bioavailability in orally dosed dog; format: ADME, organism-based, Canis lupus familiaris; details: in vivo
[6] = Half life in orally dosed dog; format: ADME, organism-based, Canis lupus familiaris; details: in vivo, po
[7] = Clearance in dog; format: ADME, organism-based, Canis lupus familiaris; details: in vivo
[8] = target: Vitamin K-dependent protein C (Homo sapiens, UniProt P04070); experiment: Binding affinity to human APC
Sequence of Vitamin K-dependent protein C (P04070 43-197 limits assumed): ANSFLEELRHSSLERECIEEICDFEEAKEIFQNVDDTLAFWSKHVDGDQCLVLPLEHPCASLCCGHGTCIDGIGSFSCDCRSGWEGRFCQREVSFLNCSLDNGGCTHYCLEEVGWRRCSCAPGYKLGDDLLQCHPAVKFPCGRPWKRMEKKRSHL
Sequence of Vitamin K-dependent protein C (P04070 212-461 limits assumed): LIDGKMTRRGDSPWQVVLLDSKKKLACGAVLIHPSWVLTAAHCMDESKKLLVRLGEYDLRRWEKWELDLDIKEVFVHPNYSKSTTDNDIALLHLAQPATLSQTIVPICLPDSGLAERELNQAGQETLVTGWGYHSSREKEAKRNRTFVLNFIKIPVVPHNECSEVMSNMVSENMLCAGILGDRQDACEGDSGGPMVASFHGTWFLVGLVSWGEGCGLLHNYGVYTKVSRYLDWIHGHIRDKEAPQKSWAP

[9] = organism: Oryctolagus cuniculus; experiment: cells
[10] = Protein binding in plasma by equilibrium dialysis assay; format: ADME, cell-free; details: read-out: PPB (converted)
[11] = Apparent permeability in Caco-2 cells; format: ADME, cell-based; details: human
[12] = organism: Oryctolagus cuniculus
[13] = target: T1, Coagulation factor VII (Homo sapiens, UniProt P08709); experiment: Binding affinity to human f7a
T1 sequence (P08709 whole entry): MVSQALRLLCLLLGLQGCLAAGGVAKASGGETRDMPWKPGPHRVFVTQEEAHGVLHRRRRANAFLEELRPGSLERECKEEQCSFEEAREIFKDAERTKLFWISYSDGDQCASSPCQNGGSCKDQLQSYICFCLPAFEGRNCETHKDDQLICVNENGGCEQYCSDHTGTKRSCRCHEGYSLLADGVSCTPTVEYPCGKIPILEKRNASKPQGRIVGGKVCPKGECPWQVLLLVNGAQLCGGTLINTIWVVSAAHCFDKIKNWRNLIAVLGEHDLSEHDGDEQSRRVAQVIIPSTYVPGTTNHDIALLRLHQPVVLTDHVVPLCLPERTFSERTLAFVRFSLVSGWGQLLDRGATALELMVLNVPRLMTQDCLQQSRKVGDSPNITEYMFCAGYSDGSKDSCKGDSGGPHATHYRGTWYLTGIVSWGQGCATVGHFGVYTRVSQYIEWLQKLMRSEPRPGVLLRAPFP

[14] = target: Trypsin (Homo sapiens, UniProt P07477+P07478+P35030); experiment: Binding affinity to human trypsin; format: protein assay
[15] = target: Coagulation factor IX (Homo sapiens, UniProt P00740); experiment: Binding affinity to human f9a
Sequence of Coagulation factor IX (P00740 47-191 limits assumed): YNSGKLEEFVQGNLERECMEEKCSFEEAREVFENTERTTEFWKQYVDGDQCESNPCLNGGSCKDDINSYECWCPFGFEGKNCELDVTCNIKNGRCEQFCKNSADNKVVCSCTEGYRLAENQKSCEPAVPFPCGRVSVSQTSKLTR
Sequence of Coagulation factor IX (P00740 227-461 limits assumed): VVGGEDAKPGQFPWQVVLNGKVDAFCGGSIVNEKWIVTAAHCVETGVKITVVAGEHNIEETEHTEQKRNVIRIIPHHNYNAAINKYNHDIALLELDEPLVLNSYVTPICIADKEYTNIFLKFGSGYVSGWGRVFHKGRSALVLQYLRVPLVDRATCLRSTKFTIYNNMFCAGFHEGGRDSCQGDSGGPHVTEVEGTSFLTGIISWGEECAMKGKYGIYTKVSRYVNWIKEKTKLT

[16] = target: Tissue-type plasminogen activator (Homo sapiens, UniProt P00750); experiment: Binding affinity to human tPA
Sequence of Tissue-type plasminogen activator (P00750 whole entry): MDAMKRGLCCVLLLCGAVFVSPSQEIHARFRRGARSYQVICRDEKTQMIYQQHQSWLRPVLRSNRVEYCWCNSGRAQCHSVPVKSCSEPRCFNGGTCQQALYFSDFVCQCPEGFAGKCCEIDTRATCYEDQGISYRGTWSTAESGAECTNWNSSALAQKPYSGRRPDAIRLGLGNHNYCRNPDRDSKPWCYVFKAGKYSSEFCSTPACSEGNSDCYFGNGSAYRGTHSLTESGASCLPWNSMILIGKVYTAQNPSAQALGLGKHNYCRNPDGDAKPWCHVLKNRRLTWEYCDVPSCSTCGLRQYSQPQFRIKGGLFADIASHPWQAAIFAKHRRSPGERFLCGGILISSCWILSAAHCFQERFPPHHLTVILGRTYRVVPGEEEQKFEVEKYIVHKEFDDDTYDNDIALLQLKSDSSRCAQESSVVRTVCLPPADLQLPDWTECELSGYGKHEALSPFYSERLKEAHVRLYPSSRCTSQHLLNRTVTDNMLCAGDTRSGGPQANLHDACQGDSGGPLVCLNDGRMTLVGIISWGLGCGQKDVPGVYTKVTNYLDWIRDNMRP

[17] = target: Plasminogen (Homo sapiens, UniProt P00747); experiment: Binding affinity to human plasmin
Sequence of Plasminogen (P00747 97-580 limits assumed): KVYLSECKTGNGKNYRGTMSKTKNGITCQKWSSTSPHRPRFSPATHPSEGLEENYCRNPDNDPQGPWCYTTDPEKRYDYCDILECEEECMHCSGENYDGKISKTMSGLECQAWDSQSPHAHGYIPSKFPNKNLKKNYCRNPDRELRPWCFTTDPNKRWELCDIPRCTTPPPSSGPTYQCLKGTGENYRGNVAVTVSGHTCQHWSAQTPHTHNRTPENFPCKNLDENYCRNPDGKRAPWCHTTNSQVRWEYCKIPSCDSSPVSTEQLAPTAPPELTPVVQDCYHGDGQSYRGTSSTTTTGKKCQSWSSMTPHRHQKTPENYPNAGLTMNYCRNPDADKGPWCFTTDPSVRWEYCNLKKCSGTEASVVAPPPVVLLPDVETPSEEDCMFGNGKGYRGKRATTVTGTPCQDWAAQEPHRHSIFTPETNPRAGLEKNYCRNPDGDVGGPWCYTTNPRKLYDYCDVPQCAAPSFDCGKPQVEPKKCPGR
Sequence of Plasminogen (P00747 581-810 limits assumed): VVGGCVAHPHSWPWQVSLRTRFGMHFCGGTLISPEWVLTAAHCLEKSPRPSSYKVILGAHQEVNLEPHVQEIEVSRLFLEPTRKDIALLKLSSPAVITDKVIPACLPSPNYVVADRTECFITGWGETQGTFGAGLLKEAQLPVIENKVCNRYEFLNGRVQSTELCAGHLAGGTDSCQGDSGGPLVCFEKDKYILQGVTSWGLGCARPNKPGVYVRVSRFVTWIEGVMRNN

[18] = target: Plasma kallikrein (Homo sapiens, UniProt P03952); experiment: Binding affinity to human plasma kallikrein; format: cell-free
Sequence of Plasma kallikrein (P03952 20-390 limits assumed): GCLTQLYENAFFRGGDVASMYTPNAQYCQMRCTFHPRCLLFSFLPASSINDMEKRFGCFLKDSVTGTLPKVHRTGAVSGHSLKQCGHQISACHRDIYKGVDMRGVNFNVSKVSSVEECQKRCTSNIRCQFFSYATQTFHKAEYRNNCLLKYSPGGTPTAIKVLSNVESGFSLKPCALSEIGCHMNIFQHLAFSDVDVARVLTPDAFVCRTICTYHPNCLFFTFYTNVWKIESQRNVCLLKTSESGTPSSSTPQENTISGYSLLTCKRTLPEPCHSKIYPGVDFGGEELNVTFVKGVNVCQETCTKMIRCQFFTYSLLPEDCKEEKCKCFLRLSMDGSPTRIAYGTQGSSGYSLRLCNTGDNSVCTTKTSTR
Sequence of Plasma kallikrein (P03952 391-638 limits assumed): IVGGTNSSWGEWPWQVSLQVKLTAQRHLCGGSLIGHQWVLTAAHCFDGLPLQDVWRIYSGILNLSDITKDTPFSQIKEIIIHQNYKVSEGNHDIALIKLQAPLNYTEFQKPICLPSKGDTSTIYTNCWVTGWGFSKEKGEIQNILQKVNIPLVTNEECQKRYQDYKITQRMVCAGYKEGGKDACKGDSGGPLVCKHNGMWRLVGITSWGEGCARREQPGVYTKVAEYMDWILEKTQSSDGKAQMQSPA

[19] = target: Chymotrypsinogen B (Homo sapiens, UniProt P17538); experiment: Binding affinity to human chymotrypsin
Sequence of Chymotrypsinogen B (P17538 34-164 limits assumed, other chains not shown): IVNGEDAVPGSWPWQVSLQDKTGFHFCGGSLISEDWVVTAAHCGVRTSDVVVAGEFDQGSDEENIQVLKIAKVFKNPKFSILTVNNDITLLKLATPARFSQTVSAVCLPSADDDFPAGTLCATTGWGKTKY
Sequence of Chymotrypsinogen B (P17538 167-263 limits assumed, other chains not shown): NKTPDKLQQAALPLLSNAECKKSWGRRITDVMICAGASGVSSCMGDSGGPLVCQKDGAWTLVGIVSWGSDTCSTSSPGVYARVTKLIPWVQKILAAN

Sequence of Coagulation factor X (P00742 41-179 limits assumed): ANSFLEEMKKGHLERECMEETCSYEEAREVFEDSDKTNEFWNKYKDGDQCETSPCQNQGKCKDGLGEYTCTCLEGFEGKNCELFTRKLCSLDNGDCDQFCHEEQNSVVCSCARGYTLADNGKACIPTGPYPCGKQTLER
Sequence of Coagulation factor X (P00742 235-488 limits assumed): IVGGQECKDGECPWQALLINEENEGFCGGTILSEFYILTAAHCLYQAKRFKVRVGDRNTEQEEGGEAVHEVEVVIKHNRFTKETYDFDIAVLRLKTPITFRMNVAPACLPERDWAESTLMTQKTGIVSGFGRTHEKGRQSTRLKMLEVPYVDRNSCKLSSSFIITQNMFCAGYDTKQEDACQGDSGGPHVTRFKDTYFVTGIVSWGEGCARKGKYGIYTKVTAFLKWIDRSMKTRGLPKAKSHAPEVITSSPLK

SMILES	Ki [1]	2PT [2]	Ki [3]	Vd [4]	bioavailability [5]	half-life [6]	clearance [7]	also measured
Nc1noc2ccc(-n3nc(C(F)(F)F)c4c3C(=O)N(c3ccc(-c5ccccc5CN5CCOCC5)cc3)CC4)cc12	0.35 nM	41 µM	130 nM	–	–	–	–	–
CN(C)Cc1ccccc1-c1ccc(NC(=O)c2cc(C(F)(F)F)nn2-c2ccc3onc(N)c3c2)c(F)c1	–	4.2 µM	–	–	–	–	–	–
CN(C)Cc1ccccc1-c1ccc(N2CNc3c(C(F)(F)F)nn(-c4ccc5onc(N)c5c4)c3C2=O)cc1	0.25 nM	1.4 µM	–	–	–	–	–	–
Nc1noc2ccc(-n3nc(C(F)(F)F)c4c3C(=O)N(c3ccc(-c5ccccc5CN5CCCC5)cc3)CC4)cc12	0.15 nM	3.2 µM	58 nM	5 L/kg	37%	5.3 h	16.8 mL/min/kg	–
Nc1noc2ccc(-n3nc(C(F)(F)F)c4c3C(=O)N(c3ccc(-c5ccccc5CN5CCNCC5)cc3)CC4)cc12	0.64 nM	14 µM	280 nM	–	–	–	–	–
Cc1nn(-c2ccc3onc(N)c3c2)c2c1CCN(c1ccc(-c3ccccc3CN3CCCC3)cc1)C2=O	0.31 nM	1.4 µM	120 nM	3.3 L/kg	10%	1.7 h	31.7 mL/min/kg	–
CN(C)Cc1nccn1-c1ccc(NC(=O)c2cc(C(F)(F)F)nn2-c2ccc3onc(N)c3c2)c(F)c1 [RAZAXABAN]	–	2.1 µM	–	–	–	–	–	Ki [8]: > 2300 nM
CN(C)Cc1ccccc1-c1ccc(N2CCc3c(C(F)(F)F)nn(-c4ccc5onc(N)c5c4)c3C2=O)c(F)c1	0.13 nM	5.6 µM	75 nM	8.8 L/kg	83%	6.4 h	17.5 mL/min/kg	IC50 [9]: 600 nM; fraction unbound [10]: < 0.02; Papp [11]: 8.9 ×10⁻⁶ cm/s
Cc1nn(-c2ccc3onc(N)c3c2)c2c1CCN(c1ccc(-c3ccccc3CN3CC[C@@H](O)C3)cc1)C2=O	0.27 nM	2.8 µM	130 nM	0.75 L/kg	44%	1.7 h	7 mL/min/kg	ID50 [12]: 0.6 ug/hr.kg; Papp [11]: 6.2 ×10⁻⁶ cm/s
Nc1noc2ccc(-n3nc(C(F)(F)F)c4c3C(=O)N(c3ccc(-c5ccccc5CN5CCC(O)CC5)cc3)CC4)cc12	0.22 nM	4.9 µM	71 nM	1.4 L/kg	102%	6.4 h	3.5 mL/min/kg	IC50 [9]: 510 nM; Papp [11]: 0.4 ×10⁻⁶ cm/s
CNCc1ccccc1-c1ccc(N2CCc3c(C(F)(F)F)nn(-c4ccc5onc(N)c5c4)c3C2=O)cc1	0.34 nM	3.7 µM	150 nM	9.7 L/kg	67%	7.4 h	27.7 mL/min/kg	–
Nc1noc2ccc(-n3nc(C(F)(F)F)c4c3C(=O)N(c3ccc(-c5ccccc5CN5CC[C@H](O)C5)cc3)CC4)cc12	–	4.8 µM	59 nM	1.12 L/kg	52%	4.5 h	4.5 mL/min/kg	–
CN(C)Cc1ccccc1-c1ccc(N2CCc3c(C(F)(F)F)nn(-c4ccc5onc(N)c5c4)c3C2=O)cc1	0.04 nM	2.7 µM	43 nM	4.5 L/kg	50%	3.8 h	16.3 mL/min/kg	IC50 [9]: 223 nM; Papp [11]: 4.7 ×10⁻⁶ cm/s
CN(C)Cc1ccccc1-c1ccc(N2CC=Cc3c(C(F)(F)F)nn(-c4ccc5onc(N)c5c4)c3C2=O)c(F)c1	0.6 nM	15 µM	–	–	–	–	–	–
Nc1noc2ccc(-n3nc(C(F)(F)F)c4c3C(=O)N(c3ccc(-c5ccccc5CN5CCCC5)cc3F)CC4)cc12	0.24 nM	6.1 µM	–	4.8 L/kg	85%	4.9 h	13.2 mL/min/kg	IC50 [9]: 1000 nM; fraction unbound [10]: < 0.02
Cc1nn(-c2ccc3onc(N)c3c2)c2c1CCN(c1ccc(-c3ccccc3CN3CC[C@@H](O)C3)cc1F)C2=O	0.34 nM	4.9 µM	250 nM	1.1 L/kg	62%	1.1 h	15.7 mL/min/kg	–
CN(C)Cc1ccccc1-c1ccc(N2CCCc3c(C(F)(F)F)nn(-c4ccc5onc(N)c5c4)c3C2=O)c(F)c1	0.85 nM	8.5 µM	–	–	–	–	–	–
CCN(C)Cc1ccccc1-c1ccc(N2CCc3c(C(F)(F)F)nn(-c4ccc5onc(N)c5c4)c3C2=O)cc1	< 0.1 nM	3.2 µM	57 nM	–	–	–	–	–
CN(C)Cc1ccccc1-c1ccc(N2CCCc3c(C(F)(F)F)nn(-c4ccc5onc(N)c5c4)c3C2=O)cc1	0.81 nM	4 µM	–	–	–	–	–	–
Nc1noc2ccc(-n3nc(C(F)(F)F)c4c3C(=O)N(c3ccc(-c5ccccc5CN5CC[C@@H](O)C5)cc3F)CC4)cc12	0.16 nM	8.4 µM	72 nM	2.8 L/kg	81%	5.9 h	5.83 mL/min/kg	IC50 [9]: 600 nM; fraction unbound [10]: < 0.02; Papp [11]: 13 ×10⁻⁶ cm/s
CCN(CC)Cc1ccccc1-c1ccc(N2CCc3c(C(F)(F)F)nn(-c4ccc5onc(N)c5c4)c3C2=O)cc1	0.11 nM	3 µM	97 nM	–	–	–	–	–
Cc1nn(-c2ccc3onc(N)c3c2)c2c1CCN(c1ccc(-c3ccccc3CN(C)C)cc1)C2=O	0.55 nM	2.1 µM	380 nM	6.4 L/kg	13%	1.6 h	53.3 mL/min/kg	Papp [11]: 6.8 ×10⁻⁶ cm/s
CN(C)Cc1ccccc1-c1ccc(N2CC=Cc3c(C(F)(F)F)nn(-c4ccc5onc(N)c5c4)c3C2=O)cc1	0.6 nM	6.9 µM	–	–	–	–	–	–
Nc1noc2ccc(-n3nc(C(F)(F)F)c4c3C(=O)N(c3ccc(-c5ccccc5CN5CC[C@@H](O)C5)cc3)CC4)cc12	–	3.6 µM	35 nM	–	82%	–	–	Ki [8]: > 2800 nM; Ki [13]: > 2800 nM; Ki [14]: > 2800 nM; Ki [15]: > 2800 nM; Ki [16]: > 2800 nM; fraction unbound [10]: 0.026; Ki [17]: > 2800 nM; Papp [11]: 1.7 ×10⁻⁶ cm/s; Ki [18]: > 2800 nM; Ki [19]: > 2800 nM
CN1CCN(Cc2ccccc2-c2ccc(N3CCc4c(C(F)(F)F)nn(-c5ccc6onc(N)c6c5)c4C3=O)cc2)CC1	0.71 nM	31 µM	230 nM	–	–	–	–	–
